{"source": "patent US4769389A", "about": "“Oxygenated-alkyl derivatives of glutamic and aspartic acids with antagonistic activity to bio-active polypeptides and a method for their preparation” (priority 1985, dated 1988)", "key": {"guinea pig gall bladders": {"tested_on": "guinea pig gall bladders", "experiment": "Anti-CCK-8 activity on guinea-pig gallbladders in situ (in vivo)", "conditions": "Cavia porcellus, iv; CCK-8 10 ng/kg i.v.; compound i.v.; read-out: ID50, anti-CCK-8 activity in situ", "description": "In order to confirm the evidence of the studies in vitro, several of the more interesting compounds were tested in vivo with the use of guinea-pig gallbladders in situ.\nThe method used was that described by Ljungberg (Svensk. Farm. Tidskr. 69, 351-354, 1964).\nGuinea-pigs having a weight of about 400 g anaesthetised with urethane were used; the substances being tested were administered intravenously (i.v.) into the jugular vein.\nThe responses of the gallbladder to the substances being tested were detected by means of a force transducer and recorded by means of a microdynamometer. 10 ng/kg of CCK 8 were chosen as the optimum contracting dose. The antagonistic compounds tested were administered in increasing doses so as to enable the calculation of an ID50 value, that is the dose (in mg/kg i.v.) having a 50% inhibiting effect against contractions induced by 10 ng/kg i.v. of CCK-8."}, "guinea-pig gallbladder": {"tested_on": "guinea-pig gallbladder", "experiment": "Anti-CCK activity on guinea-pig gallbladders in vitro (contraction by CCK-8)", "conditions": "Cavia porcellus; CCK-8 10 ng/ml; in vitro", "description": "ANTI-CCK ACTIVITY ON GUINEA-PIG GALLBLADDERS IN VITRO A longitudinal strip of guinea-pig gallbladder is placed in a bath for isolated organs in Krebs at a temperature of 32° C. and oxygenated continuously with an oxygen-CO2 mixture (95-[…]). The isometric contractions were detected by means of a force transducer and recorded. […] The results obtained are shown in Table 3 which gives the compounds tested and the IC50 values found which were calculated by the method of regression in a test of at least three experiments for each compound studied."}, "in vivo": {"experiment": "in vivo", "conditions": "mouse, iv"}}, "data": [{"smiles": "CCCCCN(CCCOC(C)C)C(=O)C(CCC(=O)O)NC(=O)c1ccc(Cl)c(Cl)c1", "note": "(stereo not shown) [Compound 4]", "values": [{"measurement": "ED50", "setting": "guinea pig gall bladders", "result": 5.08, "unit": "mg/kg"}, {"measurement": "IC50", "setting": "guinea-pig gallbladder", "result": 3, "unit": "mg/L"}]}, {"smiles": "CCCCCN(CCCO)C(=O)C(CCC(=O)O)NC(=O)c1ccc(Cl)c(Cl)c1", "note": "(stereo not shown) [Compound 6]", "values": [{"measurement": "ED50", "setting": "guinea pig gall bladders", "result": 8.4, "unit": "mg/kg"}, {"measurement": "IC50", "setting": "guinea-pig gallbladder", "result": 0.3, "unit": "mg/L"}]}, {"smiles": "CCCCCN(CCOCC)C(=O)C(CCC(=O)O)NC(=O)c1ccc(C)c(C)c1", "note": "(stereo not shown) [Compound 8]", "values": [{"measurement": "ED50", "setting": "guinea pig gall bladders", "result": 2.02, "unit": "mg/kg"}, {"measurement": "IC50", "setting": "guinea-pig gallbladder", "result": 1.1, "unit": "mg/L"}]}, {"smiles": "CCCCCN(CCCOC)C(=O)C(CCC(=O)O)NC(=O)c1ccc(C)cc1", "note": "(stereo not shown) [Compound 9]", "values": [{"measurement": "ED50", "setting": "guinea pig gall bladders", "result": 3.85, "unit": "mg/kg"}, {"measurement": "IC50", "setting": "guinea-pig gallbladder", "result": 4, "unit": "mg/L"}]}, {"smiles": "CCCCCN(CCCOC)C(=O)C(CCC(=O)O)NC(=O)c1cccc(C)c1", "note": "(stereo not shown) [Compound 10]", "values": [{"measurement": "ED50", "setting": "guinea pig gall bladders", "result": 3.66, "unit": "mg/kg"}, {"measurement": "IC50", "setting": "guinea-pig gallbladder", "result": 4.1, "unit": "mg/L"}]}, {"smiles": "CCCCCN(CCCOC)C(=O)C(CCC(=O)O)NC(=O)c1ccc(Cl)cc1", "note": "(stereo not shown) [Compound 11]", "values": [{"measurement": "ED50", "setting": "guinea pig gall bladders", "result": 3.25, "unit": "mg/kg"}, {"measurement": "IC50", "setting": "guinea-pig gallbladder", "result": 2.6, "unit": "mg/L"}]}, {"smiles": "CCCCCN(CCOCC)C(=O)C(CCC(=O)O)NC(=O)c1ccc(Cl)cc1", "note": "(stereo not shown) [Compound 12]", "values": [{"measurement": "ED50", "setting": "guinea pig gall bladders", "result": 4.44, "unit": "mg/kg"}, {"measurement": "IC50", "setting": "guinea-pig gallbladder", "result": 2.9, "unit": "mg/L"}]}, {"smiles": "CCCCCN(CCCOC)C(=O)C(CCC(=O)O)NC(=O)c1cccc(Cl)c1", "note": "(stereo not shown) [Compound 13]", "values": [{"measurement": "ED50", "setting": "guinea pig gall bladders", "result": 6.7, "unit": "mg/kg"}, {"measurement": "IC50", "setting": "guinea-pig gallbladder", "result": 8.9, "unit": "mg/L"}]}, {"smiles": "CCCCCN(CCCOC)C(=O)C(CCC(=O)O)NC(=O)c1ccc(F)c(F)c1", "note": "(stereo not shown) [Compound 14]", "values": [{"measurement": "ED50", "setting": "guinea pig gall bladders", "result": 1.1, "unit": "mg/kg"}, {"measurement": "IC50", "setting": "guinea-pig gallbladder", "result": 0.8, "unit": "mg/L"}, {"measurement": "LD50", "setting": "in vivo", "result": 425, "unit": "mg/kg"}, {"measurement": "selectivity ratio", "setting": "in vivo", "result": 386}]}, {"smiles": "CCCCN(CCCOC)C(=O)C(CCC(=O)O)NC(=O)c1ccc(Cl)c(Cl)c1", "note": "(stereo not shown) [Compound 16]", "values": [{"measurement": "ED50", "setting": "guinea pig gall bladders", "result": 2.08, "unit": "mg/kg"}, {"measurement": "IC50", "setting": "guinea-pig gallbladder", "result": 1.5, "unit": "mg/L"}]}, {"smiles": "CCCCCCN(CCCOC)C(=O)C(CCC(=O)O)NC(=O)c1ccc(Cl)c(Cl)c1", "note": "(stereo not shown) [Compound 17]", "values": [{"measurement": "ED50", "setting": "guinea pig gall bladders", "result": 3.25, "unit": "mg/kg"}, {"measurement": "IC50", "setting": "guinea-pig gallbladder", "result": 1.6, "unit": "mg/L"}]}, {"smiles": "COCCCN(CCCC(C)(C)C)C(=O)C(CCC(=O)O)NC(=O)c1ccc(Cl)c(Cl)c1", "note": "(stereo not shown) [Compound 18]", "values": [{"measurement": "ED50", "setting": "guinea pig gall bladders", "result": 6.79, "unit": "mg/kg"}, {"measurement": "IC50", "setting": "guinea-pig gallbladder", "result": 4.8, "unit": "mg/L"}]}, {"smiles": "CCCCCN(CCCOC)C(=O)C(CC(=O)O)NC(=O)c1ccc(C)c(C)c1", "note": "(stereo not shown) [Compound 21]", "values": [{"measurement": "ED50", "setting": "guinea pig gall bladders", "result": 3.69, "unit": "mg/kg"}, {"measurement": "IC50", "setting": "guinea-pig gallbladder", "result": 4.7, "unit": "mg/L"}]}]}
